Data from EP1841748B1, “ORGANOSELENIUM CONTAINING COMPOUNDS AND THEIR USE” (Seoul National University Industry Foundation, priority 2004, dated 2006).

Assays:
[1] = Animal test: prevention of obesity under high-fat diet; assay type: in vivo, C57BL/6 mice; details: for increase in body weight: 10 mg/kg/day orally over a 78-day period of high-fat diet (feed with 35 % fat), vehicle group 102 %; for increase in body weight relative to the vehicle group: 10 mg/kg/day orally, 78-day high-fat diet, fraction of vehicle group's increase
Experimental: Animal test was performed with mice in order to confirm the in vivo effect of HK101225. 14-weeks old C57BL/6 mice (SLC Co.) were used and a feed containing 35 % of fat was given to induce obesity. A vehicle, GW501516 (10 mg/kg/day) and HK101225 (10 mg/kg/day) were orally administered over a 78-day period of high-fat diet. […] Thus, it was confirmed that HK101225 has a strong prevention effect against obesity.

[2] = GTT (glucose tolerance test): improvement of diabetes; assay type: in vivo, mice; details: after 78-day oral administration; for change of blood sugar level with time: followed to 120 minutes
Experimental: GTT (glucose tolerance test) was performed in order to confirm the diabetic improvement effect of the compound of the present invention. A vehicle, GW501516 and HK101225 were orally administered to mice over a 78-day period. Then, glucose (1.5 g/kg) was abdominally administered and change of blood sugar level with time was checked.

PPARα = target: T1, PPARα (Homo sapiens, UniProt Q07869); assay: Transfection assay (luciferase reporter, full-length PPARs plasmid DNA) in CV-1 cells; assay type: cell-based; details: 24 hours treatment, luciferase calibrated with β-galactosidase
T1 construct: Full-length PPARs plasmid DNA, reporter DNA, which has luciferase activity; expressed in transfected cells; host or cells: CV-1 cells
T1 sequence (Q07869 1-468): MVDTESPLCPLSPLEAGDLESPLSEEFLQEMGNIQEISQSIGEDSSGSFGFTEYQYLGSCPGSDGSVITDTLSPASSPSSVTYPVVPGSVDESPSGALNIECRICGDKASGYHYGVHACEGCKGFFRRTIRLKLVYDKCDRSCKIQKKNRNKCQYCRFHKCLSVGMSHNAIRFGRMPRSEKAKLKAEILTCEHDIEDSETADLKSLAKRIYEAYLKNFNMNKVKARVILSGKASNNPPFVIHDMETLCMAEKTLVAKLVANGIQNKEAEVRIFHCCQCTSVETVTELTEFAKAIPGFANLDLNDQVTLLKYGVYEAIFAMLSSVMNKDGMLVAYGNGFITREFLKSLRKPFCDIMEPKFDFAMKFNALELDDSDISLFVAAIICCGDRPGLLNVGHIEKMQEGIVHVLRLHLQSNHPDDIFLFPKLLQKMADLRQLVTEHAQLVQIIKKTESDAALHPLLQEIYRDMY
Experimental: (§1) Transfection assay was performed using CV-1 cells. The cells were cultured with a DMEM medium containing 10 % FBS, DBS (delipidated) and 1 % penicillin/streptomycin in 37 °C of a transfection assay culture system containing 5 % of carbon dioxide on a 96-well plate. Test was performed in four stages - cell inoculation, transfection, treatment with the compound of the present invention and confirmation. The CV-1 cells were inoculated on the 96-well plate, 5,000 cells/well. Transfection was performed 24 hours later. Full-length PPARs plasmid DNA, reporter DNA, which has luciferase activity and thus enables confirmation of the activity for PPARs, and β-galactosidase DNA, which offers effective information on the transfection, were used. HK101225 prepared in Example 4 was dissolved in dimethylsulfoxide (DMSO) and treated to the cells at various concentrations. After 24 hours of culturing in an incubator, the cells were lysed with a lysis buffer and luciferase activity and β-galactosidase activity were measured using a luminometer and a microplate reader. The measured luciferase activity was calibrated with the β-galactosidase activity. The result was depicted on a graph and EC50 was determined.

PPARγ = target: T2, PPARγ (Homo sapiens, UniProt P37231); assay: as above; assay type: cell-based; details: 24 hours treatment, luciferase calibrated with β-galactosidase
T2 construct: Full-length PPARs plasmid DNA, reporter DNA, which has luciferase activity; expressed in transfected cells; host or cells: CV-1 cells
T2 sequence (P37231 1-505): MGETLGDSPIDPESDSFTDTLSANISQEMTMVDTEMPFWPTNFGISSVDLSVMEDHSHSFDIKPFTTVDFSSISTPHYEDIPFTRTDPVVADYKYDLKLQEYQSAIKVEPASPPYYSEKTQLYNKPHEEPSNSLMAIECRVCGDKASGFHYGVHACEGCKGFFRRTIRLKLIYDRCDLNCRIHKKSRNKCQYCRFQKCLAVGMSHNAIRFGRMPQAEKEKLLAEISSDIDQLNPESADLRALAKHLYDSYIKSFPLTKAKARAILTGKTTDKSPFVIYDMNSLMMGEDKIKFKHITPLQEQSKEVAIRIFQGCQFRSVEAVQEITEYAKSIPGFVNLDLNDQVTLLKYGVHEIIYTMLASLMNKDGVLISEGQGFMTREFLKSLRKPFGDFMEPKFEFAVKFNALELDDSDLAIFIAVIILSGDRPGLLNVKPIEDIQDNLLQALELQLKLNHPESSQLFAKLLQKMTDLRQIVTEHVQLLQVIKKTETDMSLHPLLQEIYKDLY
Experimental: as §1

PPARδ = target: T3, PPARδ (Homo sapiens, UniProt Q03181); assay: as above; assay type: cell-based; details: 24 hours treatment, luciferase calibrated with β-galactosidase
T3 construct: Full-length PPARs plasmid DNA, reporter DNA, which has luciferase activity; expressed in transfected cells; host or cells: CV-1 cells
T3 sequence (Q03181 1-441): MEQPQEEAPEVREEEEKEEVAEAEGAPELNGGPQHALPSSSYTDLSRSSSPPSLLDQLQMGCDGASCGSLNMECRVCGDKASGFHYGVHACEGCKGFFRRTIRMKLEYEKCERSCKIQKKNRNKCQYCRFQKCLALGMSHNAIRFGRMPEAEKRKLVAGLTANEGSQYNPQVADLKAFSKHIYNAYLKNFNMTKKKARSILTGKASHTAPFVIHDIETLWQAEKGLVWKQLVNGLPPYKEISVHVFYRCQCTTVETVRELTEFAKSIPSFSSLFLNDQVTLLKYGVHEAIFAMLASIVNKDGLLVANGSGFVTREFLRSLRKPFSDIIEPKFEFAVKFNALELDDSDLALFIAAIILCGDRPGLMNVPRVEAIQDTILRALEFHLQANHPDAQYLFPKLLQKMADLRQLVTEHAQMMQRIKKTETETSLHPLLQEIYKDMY
Experimental: as §1

CV-1 cells = assay: MTT assay (cell toxicity); assay type: cell-based; details: 24 hours, at the concentration of 50,000 times of the EC50 (1.87 nM) value
Experimental: Toxicity was tested by MTT assay for HK101225 prepared in Example 4. MTT is a water-soluble, yellow substance. However, when introduced in a living cell, it is transformed into a water-insoluble, purple crystal by the mitochondrial dehydrogenase. Cell toxicity can be tested by dissolving this substance in dimethylsulfoxide and measuring light absorbance at 550 nm. The test was performed as follows.
CV-1 cells were inoculated on a 96-well plate, 5,000 cells/well. After culturing for 24 hours in a humidified culture system of 37 °C containing 5 % of carbon dioxide, the cells were treated with HK101225 at various concentrations. MTT reagent was added after 24 hours of culturing. After culturing for about 15 minutes, the purple crystal was dissolved in dimethylsulfoxide and absorbance was measured with a microplate reader to confirm cell toxicity.

Cc1cc(SCc2sc(-c3ccc(C(F)(F)F)cc3)nc2C)ccc1OCC(=O)O [GW501516, [2-methyl-4-[[[4-methyl-2-[4-(trifluoromethyl)phenyl]-1,3-thiazol-5-yl]methyl]sulfanyl]phenoxy]acetic acid, reference compound]
increase in body weight [1]: 21% | increase in body weight relative to the vehicle group [1]: about 1/5 | change of blood sugar level with time ([2]; glucose 1.5 g/kg abdominally): blood sugar level lower than that of the vehicle group, but did not restore to the normal level

Cc1cc([Se]Cc2sc(-c3ccc(C(F)(F)F)cc3)nc2C)ccc1OCC(=O)O [HK101225, 2-[4-[[2-[4-(trifluoromethyl)phenyl]-4-methylthiazol-5-yl]methylselanyl]-2-methylphenoxy]acetic acid]
EC50 (PPARα): > 10 µM | EC50 (PPARγ): > 10 µM | EC50 (PPARδ): 0.00187 µM | toxicity (CV-1 cells): no toxicity | increase in body weight [1]: 21% | increase in body weight relative to the vehicle group [1]: about 1/5 | fasting blood sugar level ([2]; compared with vehicle and GW501516 groups): lower fasting blood sugar level than the groups to which the vehicle and GW501516 were administered | time to complete glucose clearance ([2]; glucose 1.5 g/kg abdominally): 100 min | change of blood sugar level with time ([2]; glucose 1.5 g/kg abdominally): rapid decrease of blood sugar level between 20 and 40 minutes
